Our source for the IC50 values is patent US20230031406A1, “COMPOUNDS AND COMPOSITIONS FOR TREATING CONDITIONS ASSOCIATED WITH NLRP ACTIVITY” (Novartis AG, priority 2018, published 2023).

Like-named read-outs stand apart in the source and are kept apart here.

The experiment deals with PMA-differentiated THP-1 cells. Briefly: IL-1β production in PMA-differentiated THP-1 cells stimulated with gramicidin (hTHP-1 assay containing 2% fetal bovine serum; Procedures 1 and 2). Type of experiment: cell-based, human. The conditions noted are these: 2% fetal bovine serum. Put shortly: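 IL-1β release from PMA-differentiated THP-1 macrophage-like cells was triggered by 5 μM gramicidin for 2 h after 1 h compound exposure, then measured by HTRF.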

[1] abbreviates: Homo sapiens, THP-1, Table B3, hTHP-1 assay, numeric values, read-out: IC50.
[2] abbreviates: Table B2, class symbols, read-out: hTHP-1 IC50.
[3] abbreviates: Table B1, class symbols, read-out: Average IC50 of compounds in hTHP-1 assay: hTHP-1 IC50.
[4] abbreviates: Homo sapiens, THP-1, Table B3, hTHP-1 assay, class symbols, read-out: IC50.
Where [5] appears, read: Homo sapiens, THP-1, Table B1, numeric bounds, read-out: Average IC50 of compounds in hTHP-1 assay: hTHP-1 IC50.
Where [6] appears, read: Homo sapiens, THP-1, Table B1, class symbols, read-out: Average IC50 of compounds in hTHP-1 assay: hTHP-1 IC50.
The mark [7] stands for this setting: Homo sapiens, THP-1, Table B2, class symbols, read-out: hTHP-1 IC50.

In general, IC50 refers to the midpoint of a concentration-inhibition curve. With `CCn1cc(F)c(S(N)(=O)=NC(=O)Nc2c3c(nc(C(F)(F)F)c2-c2ccccc2)CCC3)n1` (single isomer, unassigned) [Example 768, (S) or (R)-1-ethyl-4-fluoro-N′-((3-phenyl-2-(trifluoromethyl)-6,7-dihydro-5H-cyclopenta[b]pyridin-4-yl)carbamoyl)-1H-pyrazole-3-sulfonimidamide], the IC50 (Table B4, class symbols, read-out: hTHP-1 IC50) fell in the range of 200 to 1000 nM.
In the case of `CC(C)(O)c1cc(F)c(S(N)(=O)=NC(=O)Nc2cc(CC(F)(F)F)nc3c2CCC3)s1` (single isomer, unassigned) [Example 690, (S) or (R)-3-Fluoro-5-(2-hydroxypropan-2-yl)-N′-((2-(2,2,2-trifluoroethyl)-6,7-dihydro-5H-cyclopenta[b]pyridin-4-yl)carbamoyl)thiophene-2-sulfonimidamide], under setting [1], the IC50 is > 30000 nM.
On to `Cc1cc(S(N)(=O)=NC(=O)Nc2c3c(nc4c2CCC4)CCC3)sc1C(C)(C)O` (single isomer, unassigned) [Compound 692a, (S) or (R)-N′-((1,2,3,5,6,7-hexahydrodicyclopenta [b,e]pyridin-8-yl)carbamoyl)-5-(2-hydroxypropan-2-yl)-4-methylthiophene-2-sulfonimidamide], for which the concentration for half-maximal inhibition (IC50) under setting [2] is 5000 to 30000 nM.
For `CC(C)c1ncc(F)c(C(C)C)c1NC(=O)N=S(N)(=O)c1sc(C(C)(C)O)cc1F` (single isomer, unassigned) [Compound 106a, (R) or (S)-3-fluoro-N′-((5-fluoro-2,4-diisopropylpyridin-3-yl)carbamoyl)-5-(2-hydroxypropan-2-yl)thiophene-2-sulfonimidamide], under setting [3], the IC50 was in the range of 40 to 200 nM.
Regarding `CC(C)(O)c1sc(S(N)(=O)=NC(=O)Nc2c3c(nc4c2CCC4(C)C)CCC3)cc1F` (single isomer, unassigned) [Compound 613b, -N′-((3,3-dimethyl-1,2,3,5,6,7-hexahydrodicyclopenta [b,e]pyridin-8-yl)carbamoyl)-4-fluoro-5-(2-hydroxypropan-2-yl)thiophene-2-sulfonimidamide], under setting [2], the IC50 was 1000 to 5000 nM.
On to `CCn1nc(S(N)(=O)=NC(=O)Nc2c3c(nc4c2CCC4(C)C)CCC3)cc1CO` (stereo not drawn) [Example 591, N′-((3,3-dimethyl-1,2,3,5,6,7-hexahydrodicyclopenta[b,e]pyridin-8-yl)carbamoyl)-1-ethyl-5-(hydroxymethyl)-1H-pyrazole-3-sulfonimidamide], for which, under setting [4], the IC50 is 1000 to 5000 nM.
In the case of `CC(C)(O)c1ccc(S(N)(=O)=NC(=O)Nc2c3c(nc4c2CCC4)CCC3)s1` (single isomer, unassigned) [Compound 149b, (S) or (R)-N′-((1,2,3,5,6,7-hexahydrodicyclo-penta[b,e]pyridin-8-yl)carbamoyl)-5-(2-hydroxypropan-2-yl)thiophene-2-sulfonimidamide], the IC50 under setting [5] is > 30000 nM.
Regarding `CCn1cc(F)c(S(N)(=O)=NC(=O)Nc2c3c(nc4c2CCC4(C)C)CCC3)n1` (single isomer, unassigned) [Example 716, (S) or (R)-N′-((3,3-dimethyl-1,2,3,5,6,7-hexahydrodicyclopenta[b,e]pyridin-8-yl)carbamoyl)-1-ethyl-4-fluoro-1H-pyrazole-3-sulfonimidamide], the IC50 (Table B3, hTHP-1 assay, class symbols, read-out: IC50) is 1000 to 5000 nM.
As for `CC(C)(O)c1scc(S(N)(=O)=NC(=O)Nc2c3c(nc4c2CCC4)CCC3)c1F` (single isomer, unassigned) [Compound 701b, (S) or (R)-4-Fluoro-N′-((1,2,3,5,6,7-hexahydrodicyclopenta [b,e]pyridin-8-yl)carbamoyl)-5-(2-hydroxypropan-2-yl)thiophene-3-sulfonimidamide], the IC50 (Homo sapiens, THP-1, Table B2, numeric bounds, read-out: hTHP-1 IC50) is > 30000 nM.
As for `NS(=O)(=NC(=O)Nc1c2c(nc3c1CCC31CC1)CCC2)c1ccn(C(F)F)n1` (single isomer, unassigned) [Compound 180b, (S) or (R)-1-(difluoromethyl)-N′-((1′,5′,6′,7′-tetrahydro-2′H-spiro[cyclopropane-1,3′-dicyclopenta[b,e]pryidin]-8′-yl)carbamoyl)-1H-pyrazole-3-sulfonimidamide], the half-maximal inhibitory concentration (IC50) under setting [5] was > 30000 nM.
For `NS(=O)(=NC(=O)Nc1c2c(nc3c1CCC31CC1)CCC2)c1ccn(C(F)F)n1` (single isomer, unassigned) [Compound 180a, (R) or (S)-1-(difluoromethyl)-N′-((1′,5′,6′,7′-tetrahydro-2′H-spiro[cyclopropane-1,3′-dicyclopenta[b,e]pyridin]-8′-yl)carbamoyl)-1H-pyrazole-3-sulfonimidamide], the IC50 under setting [6] lay in the range of 200 to 1000 nM.
Turning to `CCn1ccc(S(N)(=O)=NC(=O)Nc2c3c(nc4c2CC[C@H]4C)CCC3)n1` (single isomer, unassigned) [Compound 634b, (R) or (S)-1-Ethyl-N′-(((R)-3-methyl-1,2,3,5,6,7-hexahydrodicyclopenta [b,e]pyridin-8-yl)carbamoyl)-1H-pyrazole-3-sulfonimidamide], the IC50 under setting [2] is 40 to 200 nM.
As to `C[C@H](O)c1csc([S@@](N)(=O)=NC(=O)Nc2c3c(nc4c2CC[C@H]4C)CCC3)c1` (single isomer, unassigned) [Example 662, (S)-4-((S) or (R)-1-hydroxyethyl)-N′-(((R)-3-methyl-1,2,3,5,6,7-hexahydrodicyclopenta[b,e]pyridin-8-yl)carbamoyl)thiophene-2-sulfonimidamide], the IC50 under setting [4] lay in the range of 5000 to 30000 nM.
As for `Cc1c(CO)nc2c(c1NC(=O)N=S(N)(=O)c1cnc(C(C)(C)O)s1)CCC2` (stereo not drawn) [Compound 619, N-((2-(hydroxymethyl)-3-methyl-6,7-dihydro-5H-cyclopenta[b]pyridin-4-yl)carbamoyl)-2-(2-hydroxypropan-2-yl)thiazole-5-sulfonimidamide], under setting [7], the IC50 fell in the range of 5000 to 30000 nM.
Consider `CC(C)(O)c1ncc(S(=N)(=O)NC(=O)Nc2c3c(nc4c2CCC4)CCC3)s1` (stereo not drawn) [Compound 128, N-((1,2,3,5,6,7-hexahydrodicyclopenta[b,e]pyridin-8-yl)carbamoyl)-2-(2-hydroxypropan-2-yl)thiazole-5-sulfonimidamide], for which the IC50 under setting [6] lay within 200 to 1000 nM.
Consider `CN(C)Cc1nc(C(C)(C)O)sc1S(N)(=O)=NC(=O)Nc1c2c(nc3c1CCC3(C)C)CCC2` (stereo not drawn) [compound 592, N′-((3,3-dimethyl-1,2,3,5,6,7-hexahydrodicyclopenta[b,e]pyridin-8-yl)carbamoyl)-4-((dimethylamino)methyl)-2-(2-hydroxypropan-2-yl)thiazole-5-sulfonimidamide], for which the IC50 under setting [1] was > 30000 nM.
Turning to `CC(C)c1nc(C(F)(F)F)nc(C(C)C)c1NC(=O)N=S(N)(=O)c1sc(C(C)(C)O)nc1CO` (stereo not drawn) [Compound 179, N′-((4,6-diisopropyl-2-(trifluoromethyl)pyrimidin-5-yl)carbamoyl)-4-(hydroxymethyl)-2-(2-hydroxypropan-2-yl)thiazole-5-sulfonimidamide], the IC50 under setting [6] is 1000 to 5000 nM.
Consider `CC(C)c1ncc(F)c(C(C)C)c1NC(=O)N=S(N)(=O)c1cc(C(C)(C)O)cs1` (single isomer, unassigned) [Compound 148a, (R) or (S)-N′-((5-fluoro-2,4-diisopropylpyridin-3-yl)carbamoyl)-4-(2-hy-droxypropan-2-yl)thiophene-2-sulfonimidamide], for which the IC50 under setting [3] is 200 to 1000 nM.
With `Cc1c(CC2CC2)nc2c(c1NC(=O)N=S(N)(=O)c1cc(C(C)(C)O)cs1)CCC2` (stereo not drawn) [Compound 655, N′-((2-(cyclopropylmethyl)-3-methyl-6,7-dihydro-5H-cyclopenta[b]pyridin-4-yl)carbamoyl)-4-(2-hydroxypropan-2-yl)thiophene-2-sulfonimidamide], under setting [7], the IC50 lay within 5000 to 30000 nM.
Regarding `CC1(C)CCc2c1nc1c(c2NC(=O)N=[S@@](N)(=O)c2cc([C@@](C)(O)CO)cs2)CCC1` [Example 653, (R)-4-((R)-1,2-dihydroxypropan-2-yl)-N′-((3,3-dimethyl-1,2,3,5,6,7-hexahydrodicyclopenta[b,e]pyridin-8-yl)carbamoyl) thiophene-2-sulfonimidamide], the IC50 under setting [4] lay within 40 to 200 nM.
On to `Cc1c(C(F)(F)F)nc2c(c1NC(=O)N=S(N)(=O)c1cc(CO)n(C(C)C)n1)CCC2` (single isomer, unassigned) [Example 720, (R) or (S)-5-(hydroxymethyl)-1-isopropyl-N′-((3-methyl-2-(trifluoromethyl)-6,7-dihydro-5H-cyclopenta[b]pyridin-4-yl)carbamoyl)-1H-pyrazole-3-sulfonimidamide], for which the IC50 under setting [1] was ~30000 nM.
For the compound `CC1CCc2c1nc1c(c2NC(=O)N=S(N)(=O)c2ccn(C(F)F)n2)CCC1` (single isomer, unassigned) [Compound 184a, (R,R) or (R,S)-1-(difluoro-methyl)-N′-((3-methyl-1,2,3,5,6,7-hexahydro-dicyclopenta[b,e]pyridin-8-yl)carbamoyl)-1H-pyrazole-3-sulfonimidamide], under setting [3], the IC50 was in the range of 40 to 200 nM.
For the compound `Cc1c(C2(F)CC2)nc2c(c1NC(=O)N=S(N)(=O)c1sc(C(C)(C)O)cc1F)CCC2` (single isomer, unassigned) [Example 685, (R) or (S)-3-fluoro-N′-((2-(1-fluorocyclopropyl)-3-methyl-6,7-dihydro-5H-cyclopenta [b]pyridin-4-yl)carbamoyl)-5-(2-hydroxypropan-2-yl) thiophene-2-sulfonimidamide], the IC50 under setting [4] is 200 to 1000 nM.
Turning to `CC(C)c1cncc(C(C)C)c1NC(=O)N=S(N)(=O)c1cnc(C(C)(C)O)s1` (stereo not drawn) [Compound 160, N′-((3,5-diisopropylpyridin-4-yl)carbamoyl)-2-(2-hydroxypropan-2-yl)thiazole-5-sulfonimidamide], under setting [6], the IC50 was 5000 to 30000 nM.
